Results as given in US20030170250A1, “Local delivery of long lasting therapeutic agents” (priority 1998, published 2003).

System: carotid artery
Assay: In vivo addition of NHS-Rhodamine: local incubation in isolated carotid artery chamber, fluorescence of the artery
Design: species or system New Zealand rabbits
Conditions: 100 μl of 500 μM, 3 minutes incubation in 1-cm chamber, washed with 0.9% sodium chloride
Method: Both carotid arteries were isolated and blood flows were measured. A catheter (22G) was inserted in the arterial segment and rinsed with 0.9% sodium chloride via catheter until there was no more visible evidence of blood in the segment.
A 1-cm incubation chamber was created by ligatures in the segment area. The incubation chamber was flushed three times with 1 mL of 0.9% sodium chloride. A solution of 100 μl of 500 μM NHS-Rhodamine was prepared and incubated in the incubation chamber for 3 minutes. The excess of rhodamine was withdrawn with a 1 mL syringue. The incubation chamber was washed once again with 3 times […] of 0.9% sodium chloride. The incubation chamber was then removed from the rabbit, cut in three pieces and dipped in 10% formalin for further evaluation.

Substance | fluorescence of treated arteries
Rhodamine | little fluorescence over background
Rhodamine Green™-X, succinimidyl ester, hydrochloride mixed isomers [NHS-Rhodamine] | dramatic levels of fluorescence
